Measured values published in US20180243421A1, “IMMUNOSTIMULATING AGENT” (AJINOMOTO CO., INC., priority 2015, published 2018).

Columns and labels:
[1] = tested on: anti-OVA-specific IgG2a subclass antibody; experiment: Adjuvant activity: anti-OVA-specific IgG2a subclass antibody in serum after secondary immunization; format: in vivo, BALB/c mice
Experimental: Two weeks from the secondary immunization, the whole blood was extracted under anesthesia, and the obtained serum sample was measured for anti-OVA-specific IgG1 subclass antibody.
Measurement Method of anti-OVA-specific IgG2a Subclass Antibody
To a 96 well plate was added 5 μg/ml OVA at 100 μl/well, and the mixture was incubated at 4° C. overnight. After incubation, the mixture was washed three times with 200 μl of PBS-T (PBS+0.05%(v/v) Tween 20) per well, and blocked with 100 μl of 5% FCS/PBS solution per well at room temperature for 1 to 2 hr. Thereafter, the mixture was washed three times with PBS-T (200 μl/well), a diluted serum sample (100 μl/well) or the same amount of 5% FCS/PBS solution as a control was added, and the mixture was incubated at 37° C. for 1 hr. Thereafter, the mixture was washed five times with PBS-T (200 μl/well), a diluted biotinylated anti-mouse IgG2a antibody (100 μl/well) was added, and the mixture was incubated at 37° C. for 45 min. Thereafter, the mixture was washed five times with PBS-T (200 μl/well), a diluted anti-biotin-HRP antibody was added (100 μl/well), and the mixture was incubated at 37° C. for another 30 min. Thereafter, the mixture was washed five times with PBS-T (200 μl/well), TMB substrate solution was added (100 μl/well), and the mixture was incubated at room temperature for 10-15 min. Thereafter, a reaction quenching liquid (2N sulfuric acid solution) was added (50 μl/well) to discontinue a color developing reaction, and the absorbance (OD Value=450 nm) was measured by a microplate reader.
Measurement Method of Concentration of anti-OVA-specific IgG1 Subclass Antibody and anti-OVA-specific IgG2a Subclass Antibody
To a 96 well plate was added 5 μg/ml OVA at 100 μl/well, and the mixture was incubated at 4° C. overnight. After incubation, the mixture was washed three times with 200 μl of PBS-T (PBS+0.05% (v/v) Tween 20) per well, and blocked with 100 μl of 5% FCS/PBS solution per well at room temperature for 1 to for 2 hr. […] When an anti-OVA-specific IgG2a subclass antibody was measured, the standard of an anti-OVA-specific IgG2a subclass antibody was added at 50 ng/ml, 25 ng/ml, 12,5 ng/ml, 6.25 ng/ml, 3.125 ng/ml, 1.56 ng/ml, 0.781 ng/ml, 0.391 ng/ml, 0.195 ng/ml, 0.098 ng/ml, 0.049 ng/ml, 0 ng/ml, per 1 well. […] Thereafter, a reaction quenching liquid (2N sulfuric acid solution) was added (50 μl/well) to discontinue a color developing reaction, and the absorbance (OD Value=450 nm) was measured by a microplate reader. A standard curve was drawn from the measured OD values, and the concentration was calculated.

[2] = tested on: anti-OVA-specific IgG1 subclass antibody; experiment: Adjuvant activity: anti-OVA-specific IgG1 subclass antibody in serum after secondary immunization (Examples 12, 19, 20, 21); format: in vivo, BALB/c mice; conditions: Example 21; s.c.; SZ62 0.256 μmol in 5% αCD saline, CpG 5 μg, MPL 5 μg, Addavax 1:1, Alum; two weeks from secondary immunization
[3] = Example 2, serum sample of Example 1

CCCCCCCCCCCCCCCC(=O)NC(=N)NCCCCN [SZ62, N-hexadecanoylagmatine]
adjuvant activity (IgG2a) compared with Alum [1, 3]: equivalent to that of Alum | anti-OVA-specific IgG2a subclass antibody production as compared to the OVA single administration group [1, 3]: significantly increased | anti-OVA-specific IgG2a subclass antibody production as compared to the OVA single administration group ([1]; Example 21, s.c., SZ62 0.256 μmol in 5% αCD saline, CpG 5 μg, MPL 5 μg, Addavax 1:1, Alum, two weeks from secondary immunization): tended to increase | anti-OVA-specific IgG1 subclass antibody production as compared to the OVA single administration group [2]: tended to increase
